Data reported in patent US20260294906A1, “TREATING PSORIASIS USING A SMALL MOLECULE INHIBITOR OF TUMOR NECROSIS FACTOR ALPHA” (SANOFI, priority 2023, published 2026).
Entries after “also recorded” stand apart in the source; their conditions may differ.

How the values were obtained:
[1] = test system: participants with mild to moderate psoriasis; assay: Adverse events and safety in the clinical study; format: in vivo, human
Experimental: A double-blind, randomized, placebo-controlled phase 1 study was carried out in participants with mild to moderate psoriasis. Study participants were randomized to 200 mg twice a day (BID) of Compound 1 or placebo in 2:1 ratio (approximately 24 in the treatment group and 12 in the placebo group). The study comprised an up to 4-week screening period, and a 4-week treatment period with Compound 1 or placebo. An end-of-study visit was carried out 10±3 days after the last investigational medicinal product (IMP) administration.
(§1) The primary objective of the study was to assess the safety, tolerability, and clinical efficacy of Compound 1 at 200 mg BID via oral administration. Also evaluated was the clinical effect of Compound 1 as compared to placebo on the percent change in PASI and TLS scores from baseline to week 2 and week 4. The percent change in PASI score from baseline to week 4 was determined. TLS score was also assessed over the same time period. Also assessed was the effect of Compound 1 on biomarkers of psoriasis. Blood samples collected at predetermined time points were processed to quantify serum levels of biomarkers, including interleukin (IL)-17A, IL-17F, and IL-22 by high sensitivity methods. IL-17A, IL-17F and IL-22 are the main cytokines released by Th17 cells. Plasma levels of Compound 1 were measured to assess pharmacokinetics in the study population.
(§2) Two study interventions were used, Compound 1 and placebo. The Compound 1 intervention comprised 4× tablets of Compound 1 50 mg twice daily, i.e. 200 mg BID, for 4 weeks. The placebo intervention was 4× tablets of placebo twice daily for 4 weeks. Tablets were administered orally.
Adverse events (AEs) were reported by the participant or observed by the Investigator, and were defined as follows: • An AE is any untoward medical occurrence in a patient or clinical study participant, temporally associated with the use of study intervention, whether or not considered related to the study intervention. • NOTE: An AE can therefore be any unfavorable and unintended sign (including an abnormal laboratory finding), symptom, or disease (new or exacerbated) temporally associated with the use of study intervention.
Events meeting the AE definition: • Any abnormal laboratory test results (hematology, clinical chemistry, or urinalysis) or other safety assessments (e.g., ECG, radiological scans, vital signs measurements), including those that worsen from baseline, considered clinically significant in the medical and scientific judgment of the Investigator (i.e., not related to progression of underlying disease), e.g.: • Symptomatic and/or • Requiring either corrective treatment or consultation, and/or • Leading to IMP discontinuation or modification of dosing, and/or • Fulfilling a seriousness criterion, and/or • Defined as an AESI • Exacerbation of a chronic or intermittent pre-existing condition including either an increase in frequency and/or intensity of the condition. • New condition detected or diagnosed after study intervention administration even though it may have been present before the start of the study. • Signs, symptoms, or the clinical sequelae of a suspected drug-drug interaction. • Signs, symptoms, or the clinical sequelae of a suspected overdose of either study intervention or a concomitant medication. • Lack of efficacy or failure of expected pharmacological action per se will not be reported as an AE or SAE. Such instances will be captured in the efficacy assessments. However, the signs, symptoms, and/or clinical sequelae resulting from lack of efficacy will be reported as AE or SAE if they fulfill the definition of an AE or SAE.
Complications that occur during hospitalization are AEs. If a complication prolongs hospitalization or fulfills any other serious criteria, the event is serious. […]

[2] = test system: IL-22; assay: Serum levels of biomarker IL-22 (single-molecule array ELISA); format: in vivo, human
Experimental: as §1, §2
Blood samples were processed for analysis of IL-17A, IL-17F and IL-22 in serum samples by high sensitivity methods. Samples were collected according to the schedule of activity described above.
As indicated above, peripheral blood samples collected at predetermined time points were processed to quantify serum levels of biomarkers of psoriasis including IL-17A, IL-17F, and IL-22. Levels of IL-17A and IL-17F were quantified using a single molecule counting sandwich immunoassay (SMCxPro™, Millipore—see also Hwang et al., Methods (2019) 158:69-76). Levels of IL-22 were quantified using a single-molecule array ELISA (SIMOA™, Myriad RBM—see also Rissin et al., Anal Chem (2011) 83(6):2279-2285). Statistical analysis was based on geometric mean ratio to baseline; a two-sample t-test at significance alpha level of 5% was used for calculation of the p-values.

[3] = 200 mg BID, N = 26, placebo 33.3%

## CN1C(=O)c2cccc(OC(F)F)c2[C@H]2C[C@@H]1c1nc3ccc(-c4cnc(C5(N)CCC5)nc4)cc3n12 [Compound 1, (7R,14R)-11-[2-(1-aminocyclobutyl)pyrimidin-5-yl]-1-(difluoromethoxy)-6-methyl-6,7-dihydro-7,14-methanobenzimidazo[1,2-b][2,5]benzodiazocin-5(14H)-one]
[1]; 200 mg BID over 28 days
  safety and tolerability (in words): safe and well-tolerated
[1]; 200 mg BID, 4 weeks
  serious AEs (SAEs), severe TEAEs or AEs of special interest (AESI): no serious AEs (SAEs), severe TEAEs or AEs of special interest (AESI); also recorded: no serious AEs, severe treatment emergent AEs, or AESI being reported; also recorded: No serious or severe adverse events were observed
[1]; 200 mg BID, 2 participants
  Number of TEAEs leading to permanent study intervention discontinuation: 2
[1]; 200 mg BID, Day 8, linked to increased physical activity
  drop-out due to CPK increase: another participant dropped out on Day 8 due to CPK increase (grade 2) assessed by the investigator as non-drug related
[1]; 200 mg BID, Day 15
  drop-out due to nausea: one participant dropped out on Day 15 due to nausea assessed by the investigator as drug related
[1]; 200 mg BID, N = 26, placebo 0
  Number of participants with Dysgeusia (PT): 16
[1]; 200 mg BID, N = 26, placebo 0%
  % of participants with Dysgeusia (PT): 61.5%
[1]; 200 mg BID, N = 26, placebo 2
  Number of participants with gastrointestinal disorders (SOC): 8
[1]; 200 mg BID, N = 26, placebo 4
  Number of participants with headache (PT): 8
  Number of participants with infections and infestations (SOC): 4
  Number of participants with nervous systems disorders (SOC): 19
[1]; 200 mg BID, N = 26, placebo 16.7%
  % of participants with gastrointestinal disorders (SOC): 30.8%
[1]; [3]
  % of participants with headache (PT): 30.8%
  % of participants with infections and infestations (SOC): 15.4%
  % of participants with nervous systems disorders (SOC): 73.1%
[1]; 200 mg BID, NCI-CTCAE grades
  severity of TEAEs: All TEAEs were of grade 1 or grade 2 severity and participants fully recovered
[1]; 200 mg BID, one participant, CPK increase grade 2
  time for CPK value to return to baseline level: 7 days
[1]; 26 participants, 200 mg BID, 4 weeks, placebo 58.3%
  % of participants with treatment-emergent adverse events (TEAEs): 92.3%
[1]; out of 26 participants, 200 mg BID, 4 weeks, placebo 7 of 12
  Number of participants with treatment-emergent adverse events (TEAEs): 24
[1]; scattered across placebo and Compound 1 groups
  PCSA for vital signs, ECG and laboratory parameters (in words): no safety concerns based on vital signs, ECG or laboratory results; also recorded: All were considered not clinically meaningful by the investigator
[2]; after treatment for 4 weeks
  Serum level of IL-22 (in words): substantially decreased
[2]; baseline (before treatment)
  Serum level of IL-22, geometric mean (geometric SE): 4.13 (1.19) pg/mL
[2]; week 2, 200 mg BID
  Serum level of IL-22, geometric mean (geometric SE): 2.86 (1.18) pg/mL
[2]; week 4, 200 mg BID
  Serum level of IL-22, geometric mean (geometric SE): 2.49 (1.15) pg/mL
